The compounds below were run on late watergrass (assay: Test Example 1: herbicidal activity, application before weed generation under submerged conditions (Table 16, symbol A)). Details: 320 g/ha applied herbicide.
Type: in vivo, late watergrass (Echinochloa oryzicola)
Method in brief: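 Alluvial soil was flooded to 4 cm depth, weed seeds were sown mixed and 2.5-leaf rice seedlings were transplanted. On sowing day, the compound's emulsion, diluted in water to a set dose, was applied to the water surface. Plants grew at 25–30 °C and were scored 0–5 after three weeks.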

| SMILES | Herbicidal effect on A: late watergrass (grade 0-5) |
| --- | --- |
| Cc1nn(C)c(=O)c(-c2c(-c3ccc(OC(F)F)cc3)sc3ccc(F)cc23)c1OC(=O)OCCCl [2-293] | 5 (Herbicidal rate of 90% or more (almost completely withered)) |

The compounds below were run on Italian ryegrass (assay: Test Example 4: herbicidal effect by soil treatment (Table 19, symbol K)). Details: amount of applied herbicide 320 g/ha.
Type: in vivo, Italian ryegrass (Lolium multiflorum)
Method in brief: (§1)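 Step 1: sow seeds in sterilized diluvial soil, cover ~1.5 cm. Step 2: spray diluted emulsion onto soil surface at predetermined rate. Step 3: greenhouse, 25–30° C, three weeks. Step 4: grade effect on each plant by earlier criteria.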

| SMILES | herbicidal effect on K: Italian ryegrass |
| --- | --- |
| Cc1nn(C)c(=O)c(-c2c(-c3ccc(OC(F)F)cc3)sc3ccc(F)cc23)c1OC(=O)OCCCl [2-293] | 5 (Herbicidal rate of 90% or more (almost completely withered)) |

What follows are compounds tested on windgrass (assay: Test Example 4: herbicidal effect by soil treatment (Table 19, symbol L)). Details: amount of applied herbicide 320 g/ha.
Type: in vivo, windgrass (Apera spica-venti)
Method in brief: as §1

| SMILES | herbicidal effect on L: windgrass |
| --- | --- |
| Cc1nn(C)c(=O)c(-c2c(-c3ccc(OC(F)F)cc3)sc3ccc(F)cc23)c1OC(=O)OCCCl [2-293] | 4 (Herbicidal rate of 70% or more and less than 90%) |

What follows are compounds tested on lambsquarters (assay: Test Example 4: herbicidal effect by soil treatment (Table 19, symbol O)). Details: amount of applied herbicide 320 g/ha.
Type: in vivo, lambsquarters (Chenopodium album)
Method in brief: as §1

| SMILES | herbicidal effect on O: lambsquarters |
| --- | --- |
| Cc1nn(C)c(=O)c(-c2c(-c3ccc(OC(F)F)cc3)sc3ccc(F)cc23)c1OC(=O)OCCCl [2-293] | 5 (Herbicidal rate of 90% or more (almost completely withered)) |

These compounds were tested on velvetleaf (assay: Test Example 4: herbicidal effect by soil treatment (Table 19, symbol M)). Details: amount of applied herbicide 320 g/ha.
Type: in vivo, velvetleaf (Abutilon theophrasti)
Method in brief: as §1

| SMILES | herbicidal effect on M: velvetleaf |
| --- | --- |
| Cc1nn(C)c(=O)c(-c2c(-c3ccc(OC(F)F)cc3)sc3ccc(F)cc23)c1OC(=O)OCCCl [2-293] | 5 (Herbicidal rate of 90% or more (almost completely withered)) |

The compounds below were run on barnyard grass (assay: Test Example 3: herbicidal effect by foliage application, Wagner pot (Table 18, symbol H)). Details: amount of applied herbicide 320 g/ha.
Type: in vivo, barnyard grass (Echinochloa crus-galli)
Method in brief: (§2)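 Plants were sown in alluvial soil held under 0.1–0.5 cm standing water and grown 14 days in a greenhouse at 25–30 °C. An emulsifiable formulation, water-diluted to the set dose, was then sprayed onto the foliage, and effects were scored three weeks later using previously defined criteria.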

| SMILES | herbicidal effect on H: barnyard grass |
| --- | --- |
| Cc1nn(C)c(=O)c(-c2c(-c3ccc(OC(F)F)cc3)sc3ccc(F)cc23)c1OC(=O)OCCCl [2-293] | 5 (Herbicidal rate of 90% or more (almost completely withered)) |

The compounds below were run on blackgrass (assay: Test Example 5: herbicidal effect by foliage application, plastic box (Table 20, symbol J)). Details: foliage application, AAH 320 g/ha, evaluated three weeks after application.
Type: in vivo, blackgrass (Alopecurus myosuroides)
Method in brief: (§3)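 Foliar spray test: emulsion formulation diluted in water to a set application rate, sprayed onto 14-day-old plants raised in diluvial soil at 25° C to 30° C under glass. Both herbicidal effect and crop effect rated visually three weeks later.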

| SMILES | J: blackgrass, herbicidal effect (criteria 0-5) |
| --- | --- |
| Cc1nn(C)c(=O)c(-c2c(-c3ccc(OC(F)F)cc3)sc3ccc(F)cc23)c1OC(=O)OCCCl [2-293] | 5 (Herbicidal rate of 90% or more (almost completely withered)) |

Each compound was assayed on redroot pigweed (assay: Test Example 5: herbicidal effect by foliage application, plastic box (Table 20, symbol N)). Details: foliage application, AAH 320 g/ha, evaluated three weeks after application.
Type: in vivo, redroot pigweed (Amaranthus retroflexus)
Method in brief: as §3

| SMILES | N: redroot pigweed, herbicidal effect (criteria 0-5) |
| --- | --- |
| Cc1nn(C)c(=O)c(-c2c(-c3ccc(OC(F)F)cc3)sc3ccc(F)cc23)c1OC(=O)OCCCl [2-293] | 5 (Herbicidal rate of 90% or more (almost completely withered)) |

The compounds below were run on blackgrass (assay: Test Example 4: herbicidal effect by soil treatment (Table 19, symbol J)). Details: amount of applied herbicide 320 g/ha.
Type: in vivo, blackgrass (Alopecurus myosuroides)
Method in brief: as §1

| SMILES | herbicidal effect on J: blackgrass |
| --- | --- |
| Cc1nn(C)c(=O)c(-c2c(-c3ccc(OC(F)F)cc3)sc3ccc(F)cc23)c1OC(=O)OCCCl [2-293] | 5 (Herbicidal rate of 90% or more (almost completely withered)) |

What follows are compounds tested on Italian ryegrass (assay: Test Example 5: herbicidal effect by foliage application, plastic box (Table 20, symbol K)). Details: foliage application, AAH 320 g/ha, evaluated three weeks after application.
Type: in vivo, Italian ryegrass (Lolium multiflorum)
Method in brief: as §3

| SMILES | K: Italian ryegrass, herbicidal effect (criteria 0-5) |
| --- | --- |
| Cc1nn(C)c(=O)c(-c2c(-c3ccc(OC(F)F)cc3)sc3ccc(F)cc23)c1OC(=O)OCCCl [2-293] | 5 (Herbicidal rate of 90% or more (almost completely withered)) |

What follows are compounds tested on velvetleaf (assay: Test Example 5: herbicidal effect by foliage application, plastic box (Table 20, symbol M)). Details: foliage application, AAH 320 g/ha, evaluated three weeks after application.
Type: in vivo, velvetleaf (Abutilon theophrasti)
Method in brief: as §3

| SMILES | M: velvetleaf, herbicidal effect (criteria 0-5) |
| --- | --- |
| Cc1nn(C)c(=O)c(-c2c(-c3ccc(OC(F)F)cc3)sc3ccc(F)cc23)c1OC(=O)OCCCl [2-293] | 5 (Herbicidal rate of 90% or more (almost completely withered)) |

Each compound was assayed on persian speedwell (assay: Test Example 4: herbicidal effect by soil treatment (Table 19, symbol R)). Details: amount of applied herbicide 320 g/ha.
Type: in vivo, Persian speedwell (Veronica persica)
Method in brief: as §1

| SMILES | herbicidal effect on R: persian speedwell |
| --- | --- |
| Cc1nn(C)c(=O)c(-c2c(-c3ccc(OC(F)F)cc3)sc3ccc(F)cc23)c1OC(=O)OCCCl [2-293] | 5 (Herbicidal rate of 90% or more (almost completely withered)) |

Each compound was assayed on late watergrass (assay: Test Example 2: herbicidal activity, application during weed generation under submerged conditions (Table 17, symbol A)). Details: AAH 320 g/ha; application during weed generation, submerged conditions.
Type: in vivo, late watergrass (Echinochloa oryzicola)
Method in brief: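 Effect on each weed is rated three weeks post-treatment, using the same scoring criteria as the preceding test. Plants grow from mixed-sown seed in flooded alluvial soil (4 cm water) at 25° C. to 30° C., and are treated at one to two leaves with diluted emulsion dropped onto the water.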

| SMILES | herbicidal effect rating, A: late watergrass |
| --- | --- |
| Cc1nn(C)c(=O)c(-c2c(-c3ccc(OC(F)F)cc3)sc3ccc(F)cc23)c1OC(=O)OCCCl [2-293] | 4 (Herbicidal rate of 70% or more and less than 90%) |

What follows are compounds tested on Chinese sprangletop (assay: Test Example 3: herbicidal effect by foliage application, Wagner pot (Table 18, symbol D)). Details: amount of applied herbicide 320 g/ha.
Type: in vivo, chinese sprangletop (Leptochloa chinensis)
Method in brief: as §2

| SMILES | herbicidal effect on D: Chinese sprangletop |
| --- | --- |
| Cc1nn(C)c(=O)c(-c2c(-c3ccc(OC(F)F)cc3)sc3ccc(F)cc23)c1OC(=O)OCCCl [2-293] | 3 (Herbicidal rate of 40% or more and less than 70%) |

These compounds were tested on lambsquarters (assay: Test Example 5: herbicidal effect by foliage application, plastic box (Table 20, symbol O)). Details: foliage application, AAH 320 g/ha, evaluated three weeks after application.
Type: in vivo, lambsquarters (Chenopodium album)
Method in brief: as §3

| SMILES | O: lambsquarters, herbicidal effect (criteria 0-5) |
| --- | --- |
| Cc1nn(C)c(=O)c(-c2c(-c3ccc(OC(F)F)cc3)sc3ccc(F)cc23)c1OC(=O)OCCCl [2-293] | 5 (Herbicidal rate of 90% or more (almost completely withered)) |

Each compound was assayed on southern crabgrass (assay: Test Example 4: herbicidal effect by soil treatment (Table 19, symbol F)). Details: amount of applied herbicide 320 g/ha.
Type: in vivo, southern crabgrass (Digitaria ciliaris)
Method in brief: as §1

| SMILES | herbicidal effect on F: southern crabgrass |
| --- | --- |
| Cc1nn(C)c(=O)c(-c2c(-c3ccc(OC(F)F)cc3)sc3ccc(F)cc23)c1OC(=O)OCCCl [2-293] | 4 (Herbicidal rate of 70% or more and less than 90%) |

From US20230085307A1, “PYRIDAZINONE COMPOUND AND HERBICIDE” (NISSAN CHEMICAL CORPORATION, priority 2019, published 2023)
